Laboratory results published in ChEMBL document CHEMBL5550120, “SuFEx-based chemical diversification for the systematic discovery of CRBN molecular glues” (Bioorg Med Chem, 2024).
Calls of active or inactive are those of the source. The calls are words filed in the database; no cut-off is given here.

Tests used:
[1] = biological target: T1, Protein cereblon/Eukaryotic peptide chain release factor GTP-binding subunit ERF3A (Homo sapiens, UniProt Q96SW2+P15170); test: Molecular glue activity at CRBN/GSPT1 in CRBN depleted human MOLT-4 cells assessed as induction of GSPT1 degradation at 3 uM measured after 3 hrs by immunoblot analysis; assay type: cell-based
Target sequence in this assay (P15170 whole entry, looked up): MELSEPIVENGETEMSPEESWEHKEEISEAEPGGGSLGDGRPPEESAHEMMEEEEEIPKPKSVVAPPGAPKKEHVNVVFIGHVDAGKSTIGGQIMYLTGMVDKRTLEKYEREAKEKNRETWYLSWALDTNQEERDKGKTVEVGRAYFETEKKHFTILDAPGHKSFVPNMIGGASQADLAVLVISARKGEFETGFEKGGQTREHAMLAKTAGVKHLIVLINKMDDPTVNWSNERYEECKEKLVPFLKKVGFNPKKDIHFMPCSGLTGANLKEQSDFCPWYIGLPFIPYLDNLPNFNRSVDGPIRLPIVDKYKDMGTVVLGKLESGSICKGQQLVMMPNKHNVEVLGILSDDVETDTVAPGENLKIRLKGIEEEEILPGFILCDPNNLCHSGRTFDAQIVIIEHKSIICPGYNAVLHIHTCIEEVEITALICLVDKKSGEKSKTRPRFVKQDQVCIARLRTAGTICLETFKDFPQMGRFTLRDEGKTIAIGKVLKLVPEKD
Target sequence in this assay (Q96SW2 whole entry, looked up): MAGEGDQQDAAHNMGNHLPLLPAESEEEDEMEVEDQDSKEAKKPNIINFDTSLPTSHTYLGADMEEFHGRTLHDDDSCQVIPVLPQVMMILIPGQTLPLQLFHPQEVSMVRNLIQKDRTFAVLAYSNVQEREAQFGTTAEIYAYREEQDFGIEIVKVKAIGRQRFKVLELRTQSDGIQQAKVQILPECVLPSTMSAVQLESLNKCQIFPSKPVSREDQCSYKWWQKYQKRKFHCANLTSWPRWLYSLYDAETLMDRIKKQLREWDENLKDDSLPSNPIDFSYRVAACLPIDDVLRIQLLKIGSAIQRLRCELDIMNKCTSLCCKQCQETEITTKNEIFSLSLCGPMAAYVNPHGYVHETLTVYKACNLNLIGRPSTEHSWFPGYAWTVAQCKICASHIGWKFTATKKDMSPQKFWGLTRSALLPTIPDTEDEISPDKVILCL

[2] = biological target: T1, Protein cereblon/Eukaryotic peptide chain release factor GTP-binding subunit ERF3A; test: Molecular glue activity at CRBN/HiBiT-tagged GSPT1 in human MV4-11 cells assessed as induction of GSPT1 degradation at 3 uM pretreated with MLN4924 at 1 uM for 1 hr followed by compound treatment and measured after 3 hrs by immunoblot analysis; assay type: cell-based
Target sequence in this assay (P15170 whole entry, looked up): as the sequence (P15170 whole entry, looked up) above
Target sequence in this assay (Q96SW2 whole entry, looked up): as the sequence (Q96SW2 whole entry, looked up) above

[3] = biological target: T1, Protein cereblon/Eukaryotic peptide chain release factor GTP-binding subunit ERF3A; test: Molecular glue activity at CRBN/HiBiT-tagged GSPT1 in human BE2C cells assessed as induction of GSPT1 degradation at 3 uM pretreated with pomalidomide at 25 uM for 1 hr followed by compound treatment and measured after 3 hrs by immunoblot analysis; assay type: cell-based
Target sequence in this assay (P15170 whole entry, looked up): as the sequence (P15170 whole entry, looked up) above
Target sequence in this assay (Q96SW2 whole entry, looked up): as the sequence (Q96SW2 whole entry, looked up) above

[4] = tested on: MOLT-4; test: Antiproliferative activity against wild type human MOLT-4 cells assessed as reduction in cell viability measured after 3 days by ATP-dependent luminescence assay; assay type: functional, cell-based; conditions: MOLT-4, 72 h
[5] = biological target: T1, Protein cereblon/Eukaryotic peptide chain release factor GTP-binding subunit ERF3A; test: Molecular glue activity at CRBN/HiBiT-tagged GSPT1 in human MV4-11 cells assessed as induction of GSPT1 degradation at 3 uM pretreated with pomalidomide at 25 uM for 1 hr followed by compound treatment and measured after 3 hrs by immunoblot analysis; assay type: cell-based
Target sequence in this assay (P15170 whole entry, looked up): as the sequence (P15170 whole entry, looked up) above
Target sequence in this assay (Q96SW2 whole entry, looked up): as the sequence (Q96SW2 whole entry, looked up) above

[6] = biological target: T1, Protein cereblon/Eukaryotic peptide chain release factor GTP-binding subunit ERF3A; test: Molecular glue activity at CRBN/HiBiT-tagged GSPT1 in human MV4-11 cells assessed as induction of GSPT1 degradation at 3 uM pretreated with carfilzomib at 500 nM for 1 hr followed by compound treatment and measured after 3 hrs by immunoblot analysis; assay type: cell-based
Target sequence in this assay (P15170 whole entry, looked up): as the sequence (P15170 whole entry, looked up) above
Target sequence in this assay (Q96SW2 whole entry, looked up): as the sequence (Q96SW2 whole entry, looked up) above

[7] = biological target: T1, Protein cereblon/Eukaryotic peptide chain release factor GTP-binding subunit ERF3A; test: Molecular glue activity at CRBN/HiBiT-tagged GSPT1 in human BE2C cells assessed as induction of GSPT1 degradation at 3 uM pretreated with MLN4924 at 1 uM for 1 hr followed by compound treatment and measured after 3 hrs by immunoblot analysis; assay type: cell-based
Target sequence in this assay (P15170 whole entry, looked up): as the sequence (P15170 whole entry, looked up) above
Target sequence in this assay (Q96SW2 whole entry, looked up): as the sequence (Q96SW2 whole entry, looked up) above

[8] = tested on: BE(2)-C; test: Antiproliferative activity against human BE2C cells harboring GSPT1 G575N mutant assessed as reduction in cell viability measured after 3 days by ATP-dependent luminescence assay; assay type: functional, cell-based; conditions: time 3.0 day
[9] = biological target: T1, Protein cereblon/Eukaryotic peptide chain release factor GTP-binding subunit ERF3A; test: Molecular glue activity at CRBN/HiBiT-tagged GSPT1 in human MOLT-4 cells assessed as induction of GSPT1 degradation at 3 uM pretreated with MLN4924 at 1 uM for 1 hr followed by compound treatment and measured after 3 hrs by immunoblot analysis; assay type: cell-based
[10] = Selectivity index, ratio of EC50 for antiproliferative activity against human BE2C cells to EC50 for antiproliferative activity against human MOLT-4 cells; assay type: functional
[11] = biological target: T1, Protein cereblon/Eukaryotic peptide chain release factor GTP-binding subunit ERF3A; test: Molecular glue activity at CRBN/GSPT1 in human MOLT-4 cells harboring GSPT1 G575N mutant assessed as induction of GSPT1 degradation at 3 uM measured after 3 hrs by immunoblot analysis; assay type: cell-based
[12] = biological target: T1, Protein cereblon/Eukaryotic peptide chain release factor GTP-binding subunit ERF3A; test: Molecular glue activity at CRBN/HiBiT-tagged GSPT1 in human MOLT-4 cells assessed as induction of GSPT1 degradation at 3 uM pretreated with pomalidomide at 25 uM for 1 hr followed by compound treatment and measured after 3 hrs by immunoblot analysis; assay type: cell-based
[13] = Selectivity index, ratio of EC50 for antiproliferative activity against human BE2C cells to EC50 for antiproliferative activity against human MV4-11 cells; assay type: functional
[14] = tested on: MV4-11; test: Antiproliferative activity against CRBN depleted human MV4-11 cells assessed as reduction in cell viability measured after 3 days by ATP-dependent luminescence assay; assay type: functional, cell-based; conditions: time 3.0 day
[15] = biological target: T1, Protein cereblon/Eukaryotic peptide chain release factor GTP-binding subunit ERF3A; test: Molecular glue activity at CRBN/GSPT1 in human BE2C cells harboring GSPT1 G575N mutant assessed as induction of GSPT1 degradation at 3 uM measured after 3 hrs by immunoblot analysis; assay type: cell-based
[16] = biological target: T1, Protein cereblon/Eukaryotic peptide chain release factor GTP-binding subunit ERF3A; test: Molecular glue activity at CRBN/HiBiT-tagged GSPT1 in wild type human BE2C cells assessed as induction of GSPT1 degradation measured after 3 hrs by immunoblot analysis; assay type: cell-based
Target sequence in this assay (Q96SW2 whole entry): as the sequence (Q96SW2 whole entry, looked up) above
Target sequence in this assay (P15170 whole entry): as the sequence (P15170 whole entry, looked up) above

[17] = biological target: T1, Protein cereblon/Eukaryotic peptide chain release factor GTP-binding subunit ERF3A; test: Molecular glue activity at CRBN/HiBiT-tagged GSPT1 in human MOLT-4 cells assessed as induction of GSPT1 degradation measured after 3 hrs by immunoblot analysis; assay type: cell-based
Target sequence in this assay (Q96SW2 whole entry): as the sequence (Q96SW2 whole entry, looked up) above
Target sequence in this assay (P15170 whole entry): as the sequence (P15170 whole entry, looked up) above

[18] = tested on: BE(2)-C; test: Antiproliferative activity against CRBN depleted human BE2C cells assessed as reduction in cell viability measured after 3 days by ATP-dependent luminescence assay; assay type: functional, cell-based; conditions: time 3.0 day
[19] = tested on: MOLT-4; test: Antiproliferative activity against human MOLT-4 cells harboring GSPT1 G575N mutant assessed as reduction in cell viability measured after 3 days by ATP-dependent luminescence assay; assay type: functional, cell-based; conditions: time 3.0 day
[20] = biological target: T1, Protein cereblon/Eukaryotic peptide chain release factor GTP-binding subunit ERF3A; test: Molecular glue activity at CRBN/GSPT1 in human MV4-11 cells harboring GSPT1 G575N mutant assessed as induction of GSPT1 degradation at 3 uM measured after 3 hrs by immunoblot analysis; assay type: cell-based
[21] = tested on: MV4-11; test: Downregulation of GSPT1 protein abundance in human MV4-11 cells at 3 uM measured after 3 hrs by proteomics analysis; assay type: functional, cell-based
[22] = tested on: MV4-11; test: Antiproliferative activity against human MV4-11 cells harboring GSPT1 G575N mutant assessed as reduction in cell viability measured after 3 days by ATP-dependent luminescence assay; assay type: functional, cell-based; conditions: time 3.0 day
[23] = tested on: BE(2)-C; test: Antiproliferative activity against wild type human BE2C cells assessed as reduction in cell viability measured after 3 days by ATP-dependent luminescence assay; assay type: functional, cell-based; conditions: 72 h
[24] = biological target: T1, Protein cereblon/Eukaryotic peptide chain release factor GTP-binding subunit ERF3A; test: Molecular glue activity at CRBN/HiBiT-tagged GSPT1 in wild type human MV4-11 cells assessed as induction of GSPT1 degradation measured after 3 hrs by immunoblot analysis; assay type: cell-based
Target sequence in this assay (Q96SW2 whole entry): as the sequence (Q96SW2 whole entry, looked up) above
Target sequence in this assay (P15170 whole entry): as the sequence (P15170 whole entry, looked up) above

[25] = biological target: T1, Protein cereblon/Eukaryotic peptide chain release factor GTP-binding subunit ERF3A; test: Molecular glue activity at CRBN/HiBiT-tagged GSPT1 in human MOLT-4 cells assessed as induction of GSPT1 degradation at 3 uM pretreated with carfilzomib at 500 nM for 1 hr followed by compound treatment and measured after 3 hrs by immunoblot analysis; assay type: cell-based
[26] = tested on: MOLT-4; test: Antiproliferative activity against CRBN depleted human MOLT-4 cells assessed as reduction in cell viability measured after 3 days by ATP-dependent luminescence assay; assay type: functional, cell-based; conditions: time 3.0 day
[27] = biological target: T1, Protein cereblon/Eukaryotic peptide chain release factor GTP-binding subunit ERF3A; test: Molecular glue activity at CRBN/GSPT1 in CRBN depleted human BE2C cells assessed as induction of GSPT1 degradation at 3 uM measured after 3 hrs by immunoblot analysis; assay type: cell-based
[28] = biological target: T1, Protein cereblon/Eukaryotic peptide chain release factor GTP-binding subunit ERF3A; test: Molecular glue activity at CRBN/HiBiT-tagged GSPT1 in human BE2C cells assessed as induction of GSPT1 degradation at 3 uM pretreated with carfilzomib at 500 nM for 1 hr followed by compound treatment and measured after 3 hrs by immunoblot analysis; assay type: cell-based
[29] = biological target: T1, Protein cereblon/Eukaryotic peptide chain release factor GTP-binding subunit ERF3A; test: Molecular glue activity at CRBN/GSPT1 in CRBN depleted human MV4-11 cells assessed as induction of GSPT1 degradation at 3 uM measured after 3 hrs by immunoblot analysis; assay type: cell-based
[30] = tested on: MV4-11; test: Antiproliferative activity against wild type human MV4-11 cells assessed as reduction in cell viability measured after 3 days by ATP-dependent luminescence assay; assay type: functional, cell-based; conditions: MV4-11, 72 h
[31] = tested on: MV4-11; test: Downregulation of GSPT2 protein abundance in human MV4-11 cells at 3 uM measured after 3 hrs by proteomics analysis; assay type: functional, cell-based
[32] = biological target: DNA-binding protein Ikaros (Homo sapiens) (UniProt Q13422); test: Induction of IKZF1 degradation in human MV4-11 cells at 3 uM measured after 3 hrs by immunoblot analysis; assay type: cell-based
[33] = biological target: DNA-binding protein Ikaros (Homo sapiens) (UniProt Q13422); test: Induction of cHiBiT-tagged IKZF1 degradation in human MV4-11 cells; assay type: cell-based
[34] = biological target: DNA-binding protein Ikaros (Homo sapiens) (UniProt Q13422); test: Induction of IKZF1 degradation in human MV4-11 cells at 3 uM measured after 3 hrs by proteomics analysis; assay type: cell-based

Chain of DNA-binding protein Ikaros (Homo sapiens) (Q13422 whole entry): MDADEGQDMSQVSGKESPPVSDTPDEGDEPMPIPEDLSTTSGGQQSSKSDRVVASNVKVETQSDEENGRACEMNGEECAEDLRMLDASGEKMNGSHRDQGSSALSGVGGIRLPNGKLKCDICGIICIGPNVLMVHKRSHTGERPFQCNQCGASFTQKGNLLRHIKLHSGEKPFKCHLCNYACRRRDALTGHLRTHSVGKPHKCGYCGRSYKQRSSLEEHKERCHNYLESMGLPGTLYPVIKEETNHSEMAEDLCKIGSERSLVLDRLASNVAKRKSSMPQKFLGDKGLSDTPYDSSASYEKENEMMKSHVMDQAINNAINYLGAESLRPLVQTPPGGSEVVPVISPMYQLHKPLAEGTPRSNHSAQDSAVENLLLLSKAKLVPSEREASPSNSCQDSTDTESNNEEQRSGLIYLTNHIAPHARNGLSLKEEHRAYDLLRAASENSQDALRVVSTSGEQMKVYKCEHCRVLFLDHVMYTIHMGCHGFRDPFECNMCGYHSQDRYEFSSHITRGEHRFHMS

Activity [1] | Activity [2] | Activity [3] | EC50 [4] [nM] | Activity [5] | Activity [6] | Activity [7] | Activity [9] | Activity [11] | Activity [12] | Activity [15] | DC50 [16] [nM] | DC50 [17] [nM] | DC50 [24] [nM] | EC50 [30] [nM] | Compound | Activity [8] | Ratio EC50 [10] | Ratio EC50 [13] | Activity [14] | EC50 [23] [nM] | further results
inactive | inactive | inactive | 420 | inactive | inactive | inactive | inactive | inactive | inactive | inactive | 19000 | 700 | 700 | 410 | CCC(C)(CCNS(=O)(=O)Nc1ccc2c(c1)CN(C1CCC(=O)NC1=O)C2=O)c1ccccc1OC (stereo unspecified) | inactive | ~100 | ~100 | inactive | 42000 | Activity [18]: inactive; Activity [19]: inactive; Activity [20]: inactive; Activity [21]: Active; Activity [22]: inactive; Activity [25]: inactive; Activity [26]: inactive; Activity [27]: inactive; Activity [28]: inactive; Activity [29]: inactive; Activity [31]: Active
inactive | inactive | inactive | 110 | inactive | inactive | inactive | inactive | inactive | inactive | inactive | 7000 | 90 | 60 | 80 | CCCOc1ccccc1CNS(=O)(=O)Nc1ccc2c(c1)CN(C1CCC(=O)NC1=O)C2=O (stereo unspecified) | inactive | ~100 | ~100 | inactive | 18000 | Activity [18]: inactive; Activity [19]: inactive; Activity [32]: inactive; Activity [20]: inactive; Activity [21]: Active; Activity [33]: inactive; Activity [22]: inactive; Activity [34]: inactive; Activity [25]: inactive; Activity [26]: inactive; Activity [27]: inactive; Activity [28]: inactive; Activity [29]: inactive; Activity [31]: Active
inactive | inactive | inactive | 60 | inactive | inactive | inactive | inactive | inactive | inactive | inactive | 14000 | 90 | 120 | 40 | CC(C)CCOc1ccccc1OCCNS(=O)(=O)Nc1ccc2c(c1)CN(C1CCC(=O)NC1=O)C2=O (stereo unspecified) | inactive | ~100 | ~100 | inactive | 13000 | Activity [18]: inactive; Activity [19]: inactive; Activity [20]: inactive; Activity [21]: Active; Activity [22]: inactive; Activity [25]: inactive; Activity [26]: inactive; Activity [27]: inactive; Activity [28]: inactive; Activity [29]: inactive; Activity [31]: Active
inactive | inactive | inactive | 180 | inactive | inactive | inactive | inactive | inactive | inactive | inactive | 8000 | 280 | 280 | 190 | Cc1cccc(Cl)c1OCCNS(=O)(=O)Nc1ccc2c(c1)CN(C1CCC(=O)NC1=O)C2=O (stereo unspecified) | inactive | ~100 | ~100 | inactive | 12000 | Activity [18]: inactive; Activity [19]: inactive; Activity [32]: Active; Activity [20]: inactive; Activity [21]: Active; Activity [33]: Active; Activity [22]: inactive; Activity [34]: inactive; Activity [25]: inactive; Activity [26]: inactive; Activity [27]: inactive; Activity [28]: inactive; Activity [29]: inactive; Activity [31]: Active
– | – | – | < 1 | – | – | – | – | – | – | – | < 1 | < 1 | < 1 | < 1 | Cc1ccc(NC(=O)NCc2ccc3c(c2)CN(C2CCC(=O)NC2=O)C3=O)cc1Cl (stereo unspecified) | – | – | – | – | < 5 | –
